From US9719981B2, “RAC1 inhibitors for the treatment of alport glomerular disease” (Father Flanagan's Boys' Home, priority 2012, dated 2017) come the findings set out here.

Assay [1] deals with primary cultured mesangial cells. The experiment in a line: Boyden chamber (Transwell) cell migration assay, wild type mesangial cells. As to conditions: relative to 10% FCS, p<0.05. The class given is cell-based, mouse. As to the method: MES Migration (insert). Transwell cell migration assays were performed as described by Daniel et al. (Daniel et al., 2012, Lab Invest; 92(6): 812-26) with some modifications. 8 micron, 24-well plate control inserts (BD Bioscience, Bedford, Mass.) were coated overnight at 4° C. with 100 μl of 0.1% gelatin/PBS then washed 1× with PBS. MES cultures were incubated in 1% FCS overnight, then 0.05% BSA-containing media for at least 8 hours, washed 1× with PBS and carefully tryspinized to ensure a single cell suspension and limited “clumping” of cells. After serum-neutralization and subsequent centrifugation, ˜100,000 cells were resuspended in 1.5 mls of 0.05% BSA media containing activators/inhibitors. The wells of a 24-well plate were filled with 0.75 mls of 10% FCS-containing media plus activators/inhibitors (excluding 0.05% BSA control well). 0.5 ml of cell-suspension was loaded into the gelatin-coated insert and the insert placed in a well. Wells were visually inspected for bubbles beneath insert and equal distribution of cell-suspension. Cells were allowed to migrate overnight (˜18 hrs). Using a moistened cotton swab, non-migrated cells were liberated from the apical-side of the insert by gentle but firm rubbing. A second swab repeated the removal and was followed by a single wash with PBS. Inserts were fixed, stained and washed (2×) in companion 24 well plate(s) containing 0.5 mls MEOH, 0.5 mls 1% Toluidine Blue in 1% Borax and 0.5 mls distilled H2O, respectively. Inserts were air dried and counted at 100× magnification. Five fields were counted on each insert including one center and four periphery areas. Data was expressed as relative to 10% FCS control well (set equal to one).

In assay [2] the test system is 129 Sv autosomal Alport mice. The experiment in a line: Sitaxentan treatment of 129 Sv autosomal Alport mice. Format: in vivo, mouse. As to the method: FIG. 32. […] At least 6 glomeruli from at least 3 independent animals per group were analyzed by quantifying red fluorescence in circumferential capillary loops (defined by laminin α5 immunostaining in green) using NIH image J software. Mesangial angles were excluded. A) An example of how the capillaries were partitioned for these measures. B) Immunogold labeling for integrin α8 in a filopodial cross-section on the sub-endothelial aspect of an Alport capillary loop (arrow). Note the absence of immunogold labeling in the podocyte pedicles (asterisks) and the fenestrated endothelium (arrowheads). C) Quantitative results for red fluorescence in the capillary loops.
FIG. 33. […] Urine was collected at the indicated time points and analyzed for albumin using an ELISA kit. Albumin measures were normalized to urinary creatinine. Note that measurable albumin in the Sitaxentan-treated mice was not detected until 6 weeks of age indicating a delayed onset of glomerular disease.
129 Sv autosomal Alport mice were given Sitaxentan once daily by oral gavage from 2 weeks to 7 weeks of age. Kidney cryosections were immunostained using antibodies for laminin α2 and integrin α8 to determine the effect of drug treatment on laminin 211 deposition in the GBM or laminin α5 and integrin α8 to determine the degree of mesangial filopodial invasion in the glomerular capillaries. In addition, transmission electron microscopy was used to determine whether the ETAR antagonist ameliorates GBM damage.

A further assay concerns cultured mesangial cells. Kind of assay: Endothelin-1 induced drebrin-positive actin microspikes in mesangial cells. The class given is cell-based, mouse. How it is done: (§1) FIG. 30. Treatment of mesangial cells with endothelin-1 activates CDC42 and induces the formation of drebrin-positive actin microspikes; microspikes and CDC42 activation are inhibited by pre-treatment of cells with Sitaxentan. A) Cultured mesangial cells were serum starved, pretreated for 1 hour with or without Sitaxentan, treated for 30 minutes with endothelin-1, fixed with acetone, and dual stained with anti-drebrin antibodies (red) and phalloidin (green). Drebrin-positive microspikes (filopodia, denoted by arrowheads) are highly abundant on the endothelin-treated cells, but not detected when the cells are pre-treated with Sitaxentan. B) Cells were treated as in A, then lysates prepared and assayed by ELISA for GTP-CDC42.
(§2) To address this, serum-starved cultured mesangial cells were pre-treated (or not) with the ETAR antagonist, Sitaxentan, and then stimulated the cells with endothelin-1. Cells were then dual labeled with anti-drebrin antibodies (drebrin stabilizes actin filaments in filopodia) and phalloidin. […] Lysates from cultured mesangial cells were further analysed using these same conditions for the activation of CDC42 using a commercial ELISA assay for GTP-CDC42.

Another assay has as its system CDC42. The experiment in a line: ELISA for GTP-CDC42 in endothelin-1 treated mesangial cells. Format: cell-based, mouse. As to the method: as §1, §2
Background: An ELISA detects its analyte on a solid surface through an enzyme-linked reagent.

The subject of assay [3] is 129 autosomal Alport mice. Kind of assay: Endothelin receptor blockade (Bosentan or Sitaxentan) in 129 autosomal Alport mice. Format: in vivo, mouse. The note with it: for Mesangial filopodial invasion and deposition of laminin 211 in the glomerular capillaries: Alport mouse model; for Ameliorating Alport renal disease (comparison of the two antagonists) / GBM structural abnormalities / Glomerular expression of MMPs and pro-inflammatory cytokines / Mesangial process invasion of the glomerular capillaries / Onset and progression of proteinuria: treated from 2 to 7 weeks of age. As to the method:
With this example, 129 autosomal Alport mice were given either Bosentan (an endothelin A and B receptor antagonist) or Sitaxentan (an endothelin A receptor antagonist) from 2 to 7 weeks of age. Mice were analyzed longitudinally for proteinuria and BUN, glomerular RNA for gene expression of MMPs and pro-inflammatory cytokines by real time RT-PCR, and tissue was analyzed histochemistry and immunohistochemistry for pathologic changes.
To determine whether ETR antagonism prevents mesangial filopodia formation in vivo, we treated 129 Sv Alport mice with either Bosentan (ETAR and ETBR antagonist) or Sitaxentan (an ETAR antagonist) from 2 weeks to 7 weeks of age.

Assay [4] has as its system 129 Sv autosomal Alport mice. The experiment in a line: Bosentan treatment of 129 Sv autosomal Alport mice. The class given is in vivo, mouse. As to the method:
It is known that matrix metalloproteinases (MMPs), transforming growth factor beta 1 (TGF-β1), and monocyte chemoattractant protein-1 (MCP-1) contribute to the progression of Alport glomerular pathology (Cosgrove et al., 2000, Am J Pathol; 157(5):1649-59; Rao et al., 2006, Am J Pathol; 169(1):32-46; Eisberg et al., 2006, PLoS Med; 3(4):e100). 129 Sv autosomal Alport mice and wild type littermates were treated with 100 mg/kg Bosentan or with […] vehicle by oral gavage from 2 to 7 weeks of age. One kidney was prepared for immunohistochemistry, and the other used for glomerular RNA isolation. […] MMP-9 expression was not affected; however this MMP has been shown not to contribute to progression of Alport glomerular disease (Andrews et al., 2000, Am J Pathol; 157(1):303-11). Kidney cryosections from these same mice were immunostained using antibodies against fibronectin, to assess interstitial fibrosis, and CD11b, to assess the degree of monocytic interstitial infiltration.

Assay [5] concerns cultured wild type mesangial cells. Kind of assay: LPS-induced actin cytoskeletal rearrangement (phalloidin staining). Format: cell-based, mouse. The note with it: 10 ng/ml LPS; 10 μM Rac-1 inhibitor or 1 μM CDC42 inhibitor; blinded. How it is done:
Activation of mesangial cell cultures by treatment with LPS. Sub-confluent mesangial cells were tryspinized; plated at low density on Rat tail type 1 collagen (BD Biosciences) coated cytology slides (VWR) and incubated overnight in 1% FCS-containing media. One hour after the addition of serum-free media, 1 μM CDC42 Inhibitor (KSC-23-233) and 10 μM Rac-1 Inhibitor, NSC-23766 (Tocris) were added to individual slides and allowed to incubate for an additional hour. 10 ng/ml Lipopolysaccharides (Sigma-Aldrich) was added to cells, incubated 1 hour, fixed in ice cold acetone for 5 minutes and allowed to air dry ˜2 hours. Cells were stained with a 1:100 dilution of antibodies specific for CDC42 (10155-1-AP, PROTEINTECH™), and phalloidin (Molecular Probes) imaged. Untreated, LPS alone and LPS plus inhibitors treatments were repeated on two different derivations of primary mesangial cells with qualitatively consistent results.

The test system of assay [6] is integrin α1-null mesangial cells. Kind of assay: Boyden chamber (Transwell) cell migration assay, integrin α1-null mesangial cells. The class given is cell-based, mouse. The note with it: relative to 10% FCS. How it is done: MES Migration (insert). Transwell cell migration assays were performed as described by Daniel et al. (Daniel et al., 2012, Lab Invest; 92(6): 812-26) with some modifications. 8 micron, 24-well plate control inserts (BD Bioscience, Bedford, Mass.) were coated overnight at 4° C. with 100 μl of 0.1% gelatin/PBS then washed 1× with PBS. MES cultures were incubated in 1% FCS overnight, then 0.05% BSA-containing media for at least 8 hours, washed 1× with PBS and carefully tryspinized to ensure a single cell suspension and limited “clumping” of cells. After serum-neutralization and subsequent centrifugation, ˜100,000 cells were resuspended in 1.5 mls of 0.05% BSA media containing activators/inhibitors. The wells of a 24-well plate were filled with 0.75 mls of 10% FCS-containing media plus activators/inhibitors (excluding 0.05% BSA control well). 0.5 ml of cell-suspension was loaded into the gelatin-coated insert and the insert placed in a well. Wells were visually inspected for bubbles beneath insert and equal distribution of cell-suspension. Cells were allowed to migrate overnight (˜18 hrs). […] Inserts were air dried and counted at 100× magnification. Five fields were counted on each insert including one center and four periphery areas. Data was expressed as relative to 10% FCS control well (set equal to one).

Setting [7] is: pretreated 1 hour, endothelin-1 for 30 minutes.
[8] abbreviates: 100 mg/kg oral gavage from 2 to 7 weeks of age, vs vehicle.
Where [9] appears, read: serum-starved cells, 30 minutes.

On to `CCn1c(-c2nonc2N)nc2c(C#CC(C)(C)O)ncc(OC[C@H]3CCCNC3)c21` [GSK 690693], for which the “Migration of wild type mesangial cells” value in assay [1] is on record as “not affected”.
`Cc1cc2c(cc1CC(=O)c1sccc1S(=O)(=O)Nc1onc(C)c1Cl)OCO2` [Sitaxentan, N-(4-chloro-3-methyl-1,2-oxazol-5-yl)-2-[2-(6-methyl-2H-1,3-benzodioxol-5-yl)acetyl]thiophene-3-sulfonamide]: in assay [2] (7 weeks of age), the “GBM architecture (transmission electron microscopy)” value is listed as “normalization”, the “Interstitial fibrosis (fibronectin immunostaining)” value is “profoundly ameliorated” and the “Monocyte recruitment to the renal interstitium (CD11b immunostaining)” value is on record as “profoundly ameliorated”. In addition, the “Capillary integrin α8 immunostaining (quantified red fluorescence)” value in assay [2] (at least 6 glomeruli from at least three mice per group) was “normalization”. Moreover, the “Age at which proteinuria was first detected” value in assay [2] (normally detected by 3 weeks of age) is recorded as 6 weeks of age. For the same compound, in assay [2] (once daily oral gavage from 2 weeks to 7 weeks of age, vs vehicle), the “Mesangial filopodial invasion of glomerular capillaries” value was “near complete absence”. The “Proteinuria after the onset” value in assay [2] (urinary albumin normalized to creatinine) is on record as “significantly reduced”. In addition, the “Glomerular expression of MMP-10, -12 and MCP-1 compared with the reduction seen with Bosentan” value in assay [2] (with the exception of TGF-β1) is recorded as “quantitatively similar results”. In addition, in the assay on cultured mesangial cells (setting [7]), the “Endothelin-1 induced formation of drebrin-positive microspikes, with antagonist pretreatment” value was “blocks”. Moreover, the “Endothelin-1 induced CDC42 activation (GTP-CDC42), with antagonist pretreatment” value in the assay with CDC42 (setting [7]) is reported as “prevents”. In addition, in assay [3], the “Mesangial filopodial invasion and deposition of laminin 211 in the glomerular capillaries” value is “highly effective”; the “Ameliorating Alport renal disease (comparison of the two antagonists)” value is on record as “equally effective”; the GBM structural abnormalities entry is on record as “ameliorating”; the “Glomerular expression of MMPs and pro-inflammatory cytokines” value is “significantly reducing”. In addition, in assay [3], the “Mesangial process invasion of the glomerular capillaries” value is listed as “markedly reduced”; the “Onset and progression of proteinuria” value was “delaying the onset and progression”.
Consider `COc1ccccc1Oc1c(NS(=O)(=O)c2ccc(C(C)(C)C)cc2)nc(-c2ncccn2)nc1OCCO` [Bosentan, 4-tert-butyl-N-[6-(2-hydroxy-ethoxy)-5-(2-methoxy-phenoxy)[2,{acuteover (2)}]-bipyrimidin-4-yl]-benzenesulfonamide monohydrate], for which, in assay [3], the “Mesangial filopodial invasion and deposition of laminin 211 in the glomerular capillaries” value is “highly effective”; the “Ameliorating Alport renal disease (comparison of the two antagonists)” value is reported as “equally effective”; the GBM structural abnormalities entry is given as “ameliorating”; the “Glomerular expression of MMPs and pro-inflammatory cytokines” value was “significantly reducing”. In assay [3], the “Mesangial process invasion of the glomerular capillaries” value is on record as “markedly reduced”; the “Onset and progression of proteinuria” value was “delaying the onset and progression”. In assay [4] (setting [8]), the “Glomerular MMP-9 expression” value is recorded as “not affected”, the “Glomerular mRNA expression of IL-6” value is reported as “significant reduction”, the “Glomerular mRNA expression of MMP-10” value was “significant reduction” and the “Glomerular mRNA expression of MMP-12” value is given as “significant reduction”. The “Glomerular mRNA expression of TGF-β1” value in assay [4] (setting [8]) was “significant reduction”. In addition, in assay [4] (7 weeks of age, vs vehicle), the “Interstitial fibrosis (fibronectin immunostaining)” value was “near complete blockade”; the “Mesangial process invasion of glomerular capillaries (integrin α8 / laminin α5 immunostaining)” value is “largely localized to the mesangial matrix, with occasional interposition into the capillary loops observed”; the “Monocytic interstitial infiltration (CD11b immunostaining)” value is recorded as “near complete blockade”. For the same compound, in assay [4] (Bosentan-treated Alport mice vs vehicle), the “Glomerular expression of MCP-1” value is listed as “significantly reduced”.
On to “endothelin-1: stimulus activating endothelin receptors on mesangial cells”, for which, in the assay on cultured mesangial cells (setting [9]), the “Formation of drebrin-positive filopodial microspikes on stimulation” value is recorded as “induces”. For the same compound, the “CDC42 activation (GTP-CDC42) on stimulation” value in the assay with CDC42 (setting [9]) is recorded as “significantly activates”.
With ML141, in assay [1], the “Migration of wild type mesangial cells” value is given as “significantly reduced”. Further, in assay [5], the “LPS-induced morphological change (filopodia / actin spikes) in presence of inhibitor” value is given as “could not be distinguished in blinded experiments form untreated wild type mesangial cells”. Further, in assay [6], the “Integrin α1-null mesangial cell migration” value was “unaffected”.
